Key:
[1] = test system: SIMA (Neuroblastoma); assay: Bliss excess, mean over the matrix (fraction); higher = more synergy
Procedure, shortened: (§1)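 Cell lines grown in DMEM/F12 or RPMI with 10% FBS were plated in 1536-well plates and held 24 hours at 37°C, 5% CO2 before 72 hours of exposure to two-drug dose matrices, with DMSO typically at 0.2%. CellTiter-Glo 2.0 luminescence gave viability, which was converted to inhibition. Vehicle wells were set to 0 and blank wells to 1. Combination Emax is the second-highest inhibition in the matrix, and Bliss excess is the observed combination effect minus the expected EA + EB − EA·EB, where EA and EB are the single-agent effects.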

[2] = test system: RKO (Colorectal Carcinoma); assay: combination Emax (second highest fraction inhibited in the dose matrix, 72 h); higher = more inhibition; extreme values may be limits of the assay
Procedure, shortened: as §1

[3] = test system: SW626 (Colorectal Carcinoma); assay: as above
Procedure, shortened: as §1

[4] = test system: CAL-51 (Breast Carcinoma); assay: as above
Procedure, shortened: as §1

[5] = test system: NCI-H28 (Mesothelioma); assay: as above
Procedure, shortened: as §1

[6] = test system: MDA-MB-468 (Breast Carcinoma); assay: as above
Procedure, shortened: as §1

[7] = test system: SIMA (Neuroblastoma); assay: as above
Procedure, shortened: as §1

[8] = test system: CAL-54 (Kidney Carcinoma); assay: as above
Procedure, shortened: as §1

[9] = test system: HMV-II (Melanoma); assay: as above
Procedure, shortened: as §1

[10] = test system: OC-314 (Ovarian Carcinoma); assay: as above
Procedure, shortened: as §1
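Wherever Bliss excess, mean over the matrix is given: after 72 h of two-drug dosing.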

CN(C)CCCOc1ccc(-c2ccc3ncc4c(c3c2)n(C2CCOCC2)c(=O)n4C)cn1 [AZD0156] + O=C(c1cc(Cc2n[nH]c(=O)c3ccccc23)ccc1F)N1CCN(C(=O)C2CC2)CC1 [Olaparib] (first compound max 3 µM, partner max 3 µM)
Bliss excess [1]: 0.0694 | combination Emax [2]: 0.284 | combination Emax [3]: 0.164 | combination Emax [4]: 0.296 | combination Emax [5]: 0.323 | combination Emax [6]: 0.392 | combination Emax [7]: 0.386 | combination Emax [8]: 0.369 | combination Emax [9]: 0.383 | combination Emax [10]: 0.497

C=CCn1c(=O)c2cnc(Nc3ccc(N4CCN(C)CC4)cc3)nc2n1-c1cccc(C(C)(C)O)n1 [AZD1775] + C1CN(CCC1(C(=O)N[C@@H](CCO)C2=CC=C(C=C2)Cl)N)C3=NC=NC4=C3C=CN4 [Capivasertib] (first compound max 3 µM, partner max 3 µM)
Bliss excess [1]: -0.0416 | combination Emax [2]: 0.886 | combination Emax [3]: 0.583 | combination Emax [4]: 0.941 | combination Emax [5]: 0.56 | combination Emax [6]: 0.741 | combination Emax [7]: 0.94 | combination Emax [8]: 0.782 | combination Emax [9]: 0.592 | combination Emax [10]: 0.915

CN(CCO)CC[C@H](CSc1ccccc1)Nc1ccc(S(=O)(=O)NC(=O)c2ccc(N3CCC([C@@H](O)c4ccccc4-c4ccc(Cl)cc4)CC3)cc2)cc1S(=O)(=O)C(F)(F)F [AZD4320] + C1CN(CCC1(C(=O)N[C@@H](CCO)C2=CC=C(C=C2)Cl)N)C3=NC=NC4=C3C=CN4 [Capivasertib] (first compound max 1 µM, 7x7, partner max 3 µM)
Bliss excess [1]: -0.0435 | combination Emax [2]: 0.272 | combination Emax [3]: 0.643 | combination Emax [4]: 0.504 | combination Emax [5]: 0.159 | combination Emax [6]: 0.821 | combination Emax [7]: 0.814 | combination Emax [8]: 0.338 | combination Emax [9]: 0.169 | combination Emax [10]: 0.261

CN(CCO)CC[C@H](CSc1ccccc1)Nc1ccc(S(=O)(=O)NC(=O)c2ccc(N3CCC([C@@H](O)c4ccccc4-c4ccc(Cl)cc4)CC3)cc2)cc1S(=O)(=O)C(F)(F)F [AZD4320] + C=CCn1c(=O)c2cnc(Nc3ccc(N4CCN(C)CC4)cc3)nc2n1-c1cccc(C(C)(C)O)n1 [AZD1775] (first compound max 1 µM, partner max 1 µM)
Bliss excess [1]: -0.0156 | combination Emax [2]: 0.617 | combination Emax [3]: 0.748 | combination Emax [4]: 0.907 | combination Emax [5]: 0.437 | combination Emax [6]: 0.799 | combination Emax [7]: 1 | combination Emax [8]: 0.827 | combination Emax [9]: 0.47 | combination Emax [10]: 0.619

CN(CCO)CC[C@H](CSc1ccccc1)Nc1ccc(S(=O)(=O)NC(=O)c2ccc(N3CCC([C@@H](O)c4ccccc4-c4ccc(Cl)cc4)CC3)cc2)cc1S(=O)(=O)C(F)(F)F [AZD4320] + CCN(CCO)CCCOc1ccc2c(Nc3cc(CC(=O)Nc4cccc(F)c4)[nH]n3)ncnc2c1 [AZD2811] (first compound max 1 µM, 7x7, partner max 1 µM)
Bliss excess [1]: 0.0814 | combination Emax [2]: 0.194 | combination Emax [3]: 0.825 | combination Emax [4]: 0.615 | combination Emax [5]: 0.416 | combination Emax [6]: 0.885 | combination Emax [7]: 0.971 | combination Emax [8]: 0.163 | combination Emax [9]: 0.18 | combination Emax [10]: 0.804

CN(CCO)CC[C@H](CSc1ccccc1)Nc1ccc(S(=O)(=O)NC(=O)c2ccc(N3CCC([C@@H](O)c4ccccc4-c4ccc(Cl)cc4)CC3)cc2)cc1S(=O)(=O)C(F)(F)F [AZD4320] + CN(C)CCCOc1ccc(-c2ccc3ncc4c(c3c2)n(C2CCOCC2)c(=O)n4C)cn1 [AZD0156] (first compound max 1 µM, 7x7, partner max 1 µM)
Bliss excess [1]: -0.14 | combination Emax [2]: 0.122 | combination Emax [3]: 0.573 | combination Emax [4]: 0.16 | combination Emax [5]: 0.163 | combination Emax [6]: 0.656 | combination Emax [7]: 0.848 | combination Emax [8]: 0.163 | combination Emax [9]: 0.157 | combination Emax [10]: 0.165

CN(CCO)CC[C@H](CSc1ccccc1)Nc1ccc(S(=O)(=O)NC(=O)c2ccc(N3CCC([C@@H](O)c4ccccc4-c4ccc(Cl)cc4)CC3)cc2)cc1S(=O)(=O)C(F)(F)F [AZD4320] + C[C@@H]1COCCN1C2=NC(=NC(=C2)C3(CC3)[S@](=N)(=O)C)C4=C5C=CNC5=NC=C4 [AZD6738] (first compound max 1 µM, 7x7, partner max 10 µM)
Bliss excess [1]: 0.0068 | combination Emax [2]: 0.85 | combination Emax [3]: 0.869 | combination Emax [4]: 0.919 | combination Emax [5]: 0.668 | combination Emax [6]: 0.842 | combination Emax [7]: 1 | combination Emax [8]: 0.835 | combination Emax [9]: 0.331 | combination Emax [10]: 0.909

CN(CCO)CC[C@H](CSc1ccccc1)Nc1ccc(S(=O)(=O)NC(=O)c2ccc(N3CCC([C@@H](O)c4ccccc4-c4ccc(Cl)cc4)CC3)cc2)cc1S(=O)(=O)C(F)(F)F [AZD4320] + Cc1cc2ncnn2cc1Nc1ncc2c(n1)n(C1CCOCC1)c(=O)n2C [AZD7648] (first compound max 1 µM, 7x7, partner max 10 µM)
Bliss excess [1]: 0.0256 | combination Emax [2]: 0.21 | combination Emax [3]: 0.577 | combination Emax [4]: 0.193 | combination Emax [5]: 0.15 | combination Emax [6]: 0.747 | combination Emax [7]: 0.862 | combination Emax [8]: 0.372 | combination Emax [9]: 0.18 | combination Emax [10]: 0.22

Cc1c2c(nn1C)CSCc1cc(n(C)n1)CSc1cc(c3ccccc3c1)OCCCc1c(C(=O)O)n(C)c3c-2c(Cl)ccc13 [AZD5991] + C1CN(CCC1(C(=O)N[C@@H](CCO)C2=CC=C(C=C2)Cl)N)C3=NC=NC4=C3C=CN4 [Capivasertib] (first compound max 1 µM, 7x7, partner max 3 µM)
Bliss excess [1]: -0.0195 | combination Emax [2]: 0.292 | combination Emax [3]: 0.25 | combination Emax [4]: 0.792 | combination Emax [6]: 0.585 | combination Emax [7]: 0.176 | combination Emax [8]: 0.351 | combination Emax [9]: 0.198 | combination Emax [10]: 0.297

Source: the supplement of paper PMC11061612
